{"source": "BindingDB's records for doi:10.1021/jm050532w", "about": "(Glaxosmithkline, 2005)", "key": {"[1]": {"target": "T1, Oxysterols receptor LXR-alpha (Homo sapiens, UniProt Q13133)", "T1 sequence (Q13133 whole entry)": "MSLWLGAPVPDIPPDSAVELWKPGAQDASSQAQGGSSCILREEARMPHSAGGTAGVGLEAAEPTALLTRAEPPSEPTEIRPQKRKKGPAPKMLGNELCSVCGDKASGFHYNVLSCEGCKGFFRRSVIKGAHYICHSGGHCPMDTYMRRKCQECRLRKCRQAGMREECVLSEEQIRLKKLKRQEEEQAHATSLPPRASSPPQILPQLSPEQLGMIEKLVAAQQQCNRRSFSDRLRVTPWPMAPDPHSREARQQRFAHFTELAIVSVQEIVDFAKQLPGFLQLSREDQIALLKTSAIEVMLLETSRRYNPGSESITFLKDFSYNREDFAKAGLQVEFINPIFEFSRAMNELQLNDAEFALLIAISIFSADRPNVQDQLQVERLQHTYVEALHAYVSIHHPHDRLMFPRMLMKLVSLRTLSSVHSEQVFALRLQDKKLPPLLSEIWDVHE", "experiment": "Cell-Free Ligand Sensing Assay (LiSA)-LXRalpha-SRC1 Assay", "conditions": "pH 7.5; 22 °C", "protocol": "(§1) The LXR LiSA measures the ligand-dependent recruitment of a 25 amino acid fragment of the steroid receptor coactivator 1 (SRC1) to the ligand-binding domain of the receptor. The biotinylated protein was incubated with streptavidin-AlloPhycoCyanin, biotinylated SRC-1 peptide, and streptavidin-labeled europium. The fluorescence resonance energy transfer was then counted on a Wallac Victor fluorescent plate reader in a time-resolved mode."}, "[2]": {"target": "T2, Oxysterols receptor LXR-beta (Homo sapiens, UniProt P55055)", "T2 sequence (P55055 whole entry)": "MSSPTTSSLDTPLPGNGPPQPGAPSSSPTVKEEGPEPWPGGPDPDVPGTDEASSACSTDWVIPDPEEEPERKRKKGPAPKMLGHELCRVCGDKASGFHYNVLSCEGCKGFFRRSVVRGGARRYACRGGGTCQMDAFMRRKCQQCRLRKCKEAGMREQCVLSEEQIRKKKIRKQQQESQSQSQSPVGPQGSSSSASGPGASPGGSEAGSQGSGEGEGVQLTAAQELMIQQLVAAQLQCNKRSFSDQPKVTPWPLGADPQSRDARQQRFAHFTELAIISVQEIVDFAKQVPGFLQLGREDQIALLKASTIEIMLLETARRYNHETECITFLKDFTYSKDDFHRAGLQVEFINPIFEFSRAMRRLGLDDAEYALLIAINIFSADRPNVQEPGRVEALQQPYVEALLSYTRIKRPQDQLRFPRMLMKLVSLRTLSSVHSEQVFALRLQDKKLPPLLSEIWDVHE", "experiment": "Cell-Free Ligand Sensing Assay (LiSA)-LXRbeta-SRC1 Assay", "conditions": "pH 7.5; 22 °C", "protocol": "as §1"}}, "note": "pEC50: −log10 of the molar value.", "data": [{"compound": "COc1ccc(N=C2C(=O)N(c3ccccc3)C(=O)C2c2ccccc2)cc1", "note": "(configuration not stated) [3-[(4-methoxyphenyl)amino]-1,4-diphenyl-2,5-dihydro-1H-pyrrole-2,5-dione]", "values": [{"measurement": "pEC50", "setting": "[1]", "value": 6.56}, {"measurement": "pEC50", "setting": "[2]", "value": 6.59}]}]}
